{"source": "patent US6495591B1", "about": "“Fungal efflux pump inhibitors” (Essential Therapeutics, Inc., priority 1997, dated 2002)", "key": {"[1]": {"test_system": "S. cerevisiae YEM-3 (no efflux pump introduced)", "assay": "microbe, parasite or virus in culture", "type": "cell-based", "conditions": "Saccharomyces cerevisiae, read-out: MIC Mb alone"}, "[2]": {"test_system": "S. cerevisiae YEM-1 (CDR1 introduced)", "assay": "microbe, parasite or virus in culture", "type": "cell-based", "conditions": "Saccharomyces cerevisiae, read-out: MIC Mb alone"}, "[3]": {"test_system": "S. cerevisiae YEM-39 (CgCDR introduced)", "assay": "microbe, parasite or virus in culture", "type": "cell-based", "conditions": "Saccharomyces cerevisiae, read-out: MIC Mb alone"}, "[4]": {"test_system": "S. cerevisiae YEM-38 (FLU1 introduced)", "assay": "microbe, parasite or virus in culture", "type": "cell-based", "conditions": "Saccharomyces cerevisiae, read-out: MIC Mb alone"}, "[5]": {"test_system": "C. albicans YEM-20 (CDR1 deleted)", "assay": "microbe, parasite or virus in culture", "type": "cell-based"}, "[6]": {"test_system": "C. albicans YEM-24 (CDR1, CDR2 deleted)", "assay": "microbe, parasite or virus in culture", "type": "cell-based"}, "[7]": {"test_system": "C. albicans YEM-11 (BEN overexpressor)", "assay": "microbe, parasite or virus in culture", "type": "cell-based", "conditions": "Candida albicans, read-out: MIC Mb alone"}, "[8]": {"test_system": "C. glabrata YEM-16 (low level CgBEN and CgCDR expression)", "assay": "microbe, parasite or virus in culture", "type": "cell-based"}, "[9]": {"test_system": "C. glabrata YEM-18 (low level CgBEN and CgCDR expression)", "assay": "microbe, parasite or virus in culture", "type": "cell-based"}, "[10]": {"test_system": "C. glabrata YEM-17 (CgCDR overexpressor)", "assay": "microbe, parasite or virus in culture", "type": "cell-based"}, "[11]": {"test_system": "mammalian P-glycoprotein multi-drug resistant pump", "type": "cell-based, mouse", "method": "The inhibitory effect of milbemycin β1 against the mammalian P-glycoprotein multi-drug resistant pump was determined following the procedure described by Tsuruo et al (Cancer Res., 1981. 41:1967-1972) with slight modification. The cytotoxicity of antitumor agent, adriamycin, against adriamycin sensitive P388 cell line (mouse leukemia) and its adriamycin resistant subline line (P388/ADM) was measured in the presence of various concentrations of milbemycin β1. […] The assay is performed in serum-free media containing 20 μM of 2-mercaptoethanol. Chemosensitivity to adriamycin was determined […] based on the reduction of MTT (3-[4,5-dimethylthiazol-2-yl]-2,5-diphenyltetrazolium bromide) into blue formazan."}, "[12]": {"assay": "Cytotoxicity TC50 in K-562", "type": "cell-based", "conditions": "human, k-562 cells; compound alone"}, "C. albicans YEM-13 (BEN)": {"test_system": "C. albicans YEM-13 (BEN)", "type": "cell-based"}, "[13]": {"test_system": "C. krusei YEM-52 (ATCC 90878), wild type", "assay": "Minimal concentration to reduce fluconazole MIC sixteen-fold (Table 7)", "type": "cell-based", "conditions": "YEM-52, wild type"}, "CDR1 efflux pump": {"target": "CDR1 efflux pump (Candida albicans, UniProt P43071)", "sequence (P43071 whole entry)": "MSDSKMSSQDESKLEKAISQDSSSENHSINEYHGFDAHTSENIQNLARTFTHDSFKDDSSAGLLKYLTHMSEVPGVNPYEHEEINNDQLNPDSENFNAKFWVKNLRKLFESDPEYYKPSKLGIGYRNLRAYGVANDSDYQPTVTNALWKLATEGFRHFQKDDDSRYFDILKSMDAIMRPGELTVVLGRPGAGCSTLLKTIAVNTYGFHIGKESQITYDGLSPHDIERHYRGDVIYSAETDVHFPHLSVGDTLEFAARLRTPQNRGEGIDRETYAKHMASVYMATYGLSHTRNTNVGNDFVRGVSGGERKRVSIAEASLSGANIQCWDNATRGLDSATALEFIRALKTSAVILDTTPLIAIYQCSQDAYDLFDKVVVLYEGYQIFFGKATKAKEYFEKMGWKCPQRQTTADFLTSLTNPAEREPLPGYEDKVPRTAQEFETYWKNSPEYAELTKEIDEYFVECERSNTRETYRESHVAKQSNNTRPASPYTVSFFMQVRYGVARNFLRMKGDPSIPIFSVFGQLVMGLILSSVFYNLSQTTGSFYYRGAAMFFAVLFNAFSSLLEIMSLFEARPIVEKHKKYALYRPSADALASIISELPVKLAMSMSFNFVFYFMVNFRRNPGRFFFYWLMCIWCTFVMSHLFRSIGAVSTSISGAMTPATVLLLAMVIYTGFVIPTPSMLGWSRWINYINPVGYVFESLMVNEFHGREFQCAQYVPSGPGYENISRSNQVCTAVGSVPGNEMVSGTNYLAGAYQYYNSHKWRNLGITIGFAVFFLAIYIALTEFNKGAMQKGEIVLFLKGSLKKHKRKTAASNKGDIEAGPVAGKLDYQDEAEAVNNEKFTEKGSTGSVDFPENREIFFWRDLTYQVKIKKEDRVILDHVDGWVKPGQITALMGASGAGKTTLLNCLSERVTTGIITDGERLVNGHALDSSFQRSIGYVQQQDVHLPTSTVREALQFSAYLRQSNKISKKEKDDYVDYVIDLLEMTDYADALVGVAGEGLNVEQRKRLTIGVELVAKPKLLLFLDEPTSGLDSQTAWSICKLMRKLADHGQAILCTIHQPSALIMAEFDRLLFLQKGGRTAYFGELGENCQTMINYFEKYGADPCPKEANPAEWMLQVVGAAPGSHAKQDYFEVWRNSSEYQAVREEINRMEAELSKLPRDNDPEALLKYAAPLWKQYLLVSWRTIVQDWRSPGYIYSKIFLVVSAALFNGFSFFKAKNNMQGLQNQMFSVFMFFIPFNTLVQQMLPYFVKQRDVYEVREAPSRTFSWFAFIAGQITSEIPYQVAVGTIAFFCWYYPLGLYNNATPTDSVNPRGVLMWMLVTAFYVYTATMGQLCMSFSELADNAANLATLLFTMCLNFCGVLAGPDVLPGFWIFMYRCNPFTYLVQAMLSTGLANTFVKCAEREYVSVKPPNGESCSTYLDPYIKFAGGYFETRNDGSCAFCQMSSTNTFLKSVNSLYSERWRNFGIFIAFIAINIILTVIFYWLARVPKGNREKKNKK", "assay": "Follow-up evaluation of screening hit, efflux pump inhibition", "conditions": "follow-up evaluation of screen hit", "quoted_text": "(§1) An exemplary screen uses C. albicans (e.g., ATCC10231) grown in YPD medium (medium described in “Guide to Yeast Genetics and Molecular Biology”, in Methods in Enzymolopy, vol. 194, pp.13, 1991,; Academic Press; Ed. C. Guthrie and G. Fink) at 30° C. […] Test and control cultures are inoculated with log-phase cells to provide approximately 10^3 CFU/ml. Cultures are incubated at 30° C. for 20-22 hrs. Cell concentration is determined by taking the OD600."}, "BenR pump": {"target": "BenR pump (Candida albicans, UniProt P28873)", "sequence (P28873 whole entry)": "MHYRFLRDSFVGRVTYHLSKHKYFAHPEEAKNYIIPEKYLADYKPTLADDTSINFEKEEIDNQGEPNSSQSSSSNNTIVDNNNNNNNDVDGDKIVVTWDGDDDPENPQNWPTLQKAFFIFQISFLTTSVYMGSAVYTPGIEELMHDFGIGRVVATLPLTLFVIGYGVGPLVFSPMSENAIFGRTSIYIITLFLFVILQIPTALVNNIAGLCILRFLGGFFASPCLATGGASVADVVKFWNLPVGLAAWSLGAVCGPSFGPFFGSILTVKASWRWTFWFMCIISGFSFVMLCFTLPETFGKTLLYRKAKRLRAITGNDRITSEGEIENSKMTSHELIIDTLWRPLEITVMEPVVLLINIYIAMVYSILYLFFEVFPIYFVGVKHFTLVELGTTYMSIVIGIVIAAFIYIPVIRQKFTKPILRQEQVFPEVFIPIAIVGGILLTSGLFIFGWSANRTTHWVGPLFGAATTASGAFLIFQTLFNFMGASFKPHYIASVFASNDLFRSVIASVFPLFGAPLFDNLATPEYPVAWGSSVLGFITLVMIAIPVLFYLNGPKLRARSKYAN", "assay": "Follow-up evaluation of screening hit, efflux pump inhibition", "conditions": "follow-up evaluation of screen hit", "quoted_text": "as §1"}, "[14]": {"target": "pFLU (MF) efflux pump in S. cerevisiae YEM-38 (Candida albicans, UniProt G1UB37)", "sequence (G1UB37 whole entry)": "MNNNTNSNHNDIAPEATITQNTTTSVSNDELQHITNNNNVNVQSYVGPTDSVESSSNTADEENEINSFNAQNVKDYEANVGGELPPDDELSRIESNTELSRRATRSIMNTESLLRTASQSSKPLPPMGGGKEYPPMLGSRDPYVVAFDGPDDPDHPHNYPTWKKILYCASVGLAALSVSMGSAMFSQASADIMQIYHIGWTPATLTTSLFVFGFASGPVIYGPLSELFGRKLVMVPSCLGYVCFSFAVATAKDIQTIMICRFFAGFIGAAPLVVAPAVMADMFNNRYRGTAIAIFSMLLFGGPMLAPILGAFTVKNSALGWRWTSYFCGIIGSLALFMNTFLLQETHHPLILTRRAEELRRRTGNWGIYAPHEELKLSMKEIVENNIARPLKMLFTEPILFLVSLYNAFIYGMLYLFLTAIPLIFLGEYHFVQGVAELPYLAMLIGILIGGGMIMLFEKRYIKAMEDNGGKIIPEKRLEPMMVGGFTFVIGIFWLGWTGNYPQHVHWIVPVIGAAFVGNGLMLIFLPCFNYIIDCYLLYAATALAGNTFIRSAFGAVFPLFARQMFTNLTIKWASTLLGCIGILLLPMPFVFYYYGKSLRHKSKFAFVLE", "assay": "cell-based", "type": "cell-based, C. albicans"}, "[15]": {"test_system": "C. albicans clinical isolates (n = 33)", "assay": "microbe, parasite or virus in culture", "type": "cell-based"}, "C. lipolytica": {"test_system": "C. lipolytica", "assay": "microbe, parasite or virus in culture", "type": "cell-based", "conditions": "strain 828B; MIC (80%) in YPD"}, "[16]": {"conditions": "Candida albicans, read-out: MIC Mb alone"}, "[17]": {"conditions": "Nakaseomyces glabratus, read-out: MIC of milbemycin β1 (MB) alone"}}, "note": "Read-outs that look alike come from different tables or passages of the source."}
{"smiles": "CO[C@H]1C[C@@]2(O)/C(CO)=C/C=C/[C@H](C)C/C(C)=C/C[C@@H]3C[C@@H](C[C@]4(CC[C@H](C)[C@@H](C)O4)O3)OC(=O)[C@@H]2C=C1C", "note": "[Compound 6, Milbemycin β1]", "values": [{"measurement": "MIC", "setting": "[1]", "value": 8, "unit": "µg/mL"}, {"measurement": "MIC", "setting": "[2]", "value": 8, "unit": "µg/mL"}, {"measurement": "MIC", "setting": "[3]", "value": 8, "unit": "µg/mL"}, {"measurement": "MIC", "setting": "[4]", "value": 8, "unit": "µg/mL"}, {"measurement": "MIC", "setting": "[5]; [16]", "value": 16, "unit": "µg/mL"}, {"measurement": "MIC of fluconazole, Flu + Mb (2.5 μg/ml)", "setting": "[5]; YEM-20, CDR1 deleted, milbemycin β1 2.5 μg/ml", "value": 0.125, "unit": "µg/mL"}, {"measurement": "MIC", "setting": "[6]; [16]", "value": 16, "unit": "µg/mL"}, {"measurement": "MIC of fluconazole, Flu + Mb (2.5 μg/ml)", "setting": "[6]; YEM-24, CDR1, CDR2 deleted, milbemycin β1 2.5 μg/ml", "value": 0.125, "unit": "µg/mL"}, {"measurement": "MIC", "setting": "[7]", "value": 16, "unit": "µg/mL"}, {"measurement": "MIC", "setting": "[8]; [17]", "value": "> 64", "unit": "µg/mL"}, {"measurement": "Fluconazole MIC with 2.5 μg/ml milbemycin β1", "setting": "[8]; YEM-16", "value": 1, "unit": "µg/mL"}, {"measurement": "Fluconazole MIC with 5 μg/ml milbemycin β1", "setting": "[8]; YEM-16", "value": 2, "unit": "µg/mL"}, {"measurement": "Fluconazole MIC with 10 μg/ml milbemycin β1", "setting": "[8]; YEM-16", "value": 2, "unit": "µg/mL"}, {"measurement": "Fluconazole MIC with […] milbemycin β1", "setting": "[8]; YEM-16", "value": 2, "unit": "µg/mL"}, {"measurement": "MIC", "setting": "[9]; [17]", "value": "> 64", "unit": "µg/mL"}, {"measurement": "Fluconazole MIC with 2.5 μg/ml milbemycin β1", "setting": "[9]; YEM-18", "value": 2, "unit": "µg/mL"}, {"measurement": "Fluconazole MIC with 5 μg/ml milbemycin β1", "setting": "[9]; YEM-18", "value": 2, "unit": "µg/mL"}, {"measurement": "Fluconazole MIC with 10 μg/ml milbemycin β1", "setting": "[9]; YEM-18", "value": 2, "unit": "µg/mL"}, {"measurement": "Fluconazole MIC with […] milbemycin β1", "setting": "[9]; YEM-18", "value": 2, "unit": "µg/mL"}, {"measurement": "MIC", "setting": "[10]; [17]", "value": "> 64", "unit": "µg/mL"}, {"measurement": "Fluconazole MIC with 2.5 μg/ml milbemycin β1", "setting": "[10]; YEM-17", "value": 4, "unit": "µg/mL"}, {"measurement": "Fluconazole MIC with 5 μg/ml milbemycin β1", "setting": "[10]; YEM-17", "value": 2, "unit": "µg/mL"}, {"measurement": "Fluconazole MIC with 10 μg/ml milbemycin β1", "setting": "[10]; YEM-17", "value": 2, "unit": "µg/mL"}, {"measurement": "Fluconazole MIC with […] milbemycin β1", "setting": "[10]; YEM-17", "value": 8, "unit": "µg/mL"}, {"measurement": "Potency as inhibitor of the mammalian p-glycoprotein multi-drug resistant pump", "setting": "[11]; compared with verapamil", "value": "potency similar to that of verapamil"}, {"measurement": "Ratio [P388/A]/[P388]", "setting": "[11]; inhibitor 0.06 μg/ml", "value": 220}, {"measurement": "Ratio [P388/A]/[P388]", "setting": "[11]; inhibitor 0.25 μg/ml", "value": 75}, {"measurement": "Ratio [P388/A]/[P388]", "setting": "[11]; inhibitor 0.5 μg/ml", "value": 32}, {"measurement": "Ratio [P388/A]/[P388]", "setting": "[11]; inhibitor 1 μg/ml", "value": 23}, {"measurement": "Ratio [P388/A]/[P388]", "setting": "[11]; inhibitor 2 μg/ml", "value": 4}, {"measurement": "Ratio [P388/A]/[P388]", "setting": "[11]; inhibitor 3.125 μg/ml", "value": 5}, {"measurement": "CC50", "setting": "[12]", "value": 8, "unit": "µM"}, {"measurement": "Minimal concentration required to reduce the MIC of fluconazole by sixteen-fold", "setting": "C. albicans YEM-13 (BEN)", "value": 80, "unit": "µg/mL"}, {"measurement": "Minimal concentration required to reduce the MIC of fluconazole by sixteen-fold", "setting": "[13]", "value": 1.25, "unit": "µg/mL"}, {"measurement": "Inhibition of the CDR1 efflux pump", "setting": "CDR1 efflux pump", "value": "inhibited the CDR1 efflux pump"}, {"measurement": "Inhibition of the BenR pump", "setting": "BenR pump", "value": "did not appreciably inhibit the BenR pump"}]}
{"smiles": "C/C1=C\\C[C@@H]2C[C@@H](C[C@]3(CC[C@H](C)[C@@H](C)O3)O2)OC(=O)[C@@H]2C=C(COC(=O)c3ccc[nH]3)[C@@H](O)[C@H]3OC/C(=C\\C=C\\[C@H](C)C1)[C@]32O", "note": "[Compound 11, Milbemycin α9]", "values": [{"measurement": "IC50", "setting": "[14]", "value": "> 100", "unit": "µM"}, {"measurement": "Fluconazole MIC50, + milbemycin α9", "setting": "[15]", "value": "<0.25", "unit": "µg/mL"}, {"measurement": "Fluconazole MIC90, + milbemycin α9", "setting": "[15]", "value": "<0.25", "unit": "µg/mL"}, {"measurement": "Fluconazole MIC Range, + milbemycin α9", "setting": "[15]", "value": "<0.25 to 1", "unit": "µg/mL"}, {"measurement": "Reduction of fluconazole MIC90 by milbemycin α9", "setting": "[15]; C. albicans (n=33)", "value": "> 512", "unit": "fold"}, {"measurement": "Fluconazole MIC, + milbemycin α9", "setting": "C. lipolytica", "value": 8, "unit": "µg/mL"}]}
